Measured values as given in PMC12948223, “HSP70 Interactome‐Mediated Proteolysis Targeting Chimera (HSP70‐PROTAC) for Ferroptosis‐Driven Cancer Treatment” (Advanced Science, 2025).
Like-named read-outs stand apart in the source and are kept apart here.

Columns and labels:
[1] = Pharmacokinetic study in ICR mice; type: in vivo; details: mouse; male ICR mice, IP, 30 mg/kg, plasma
Description: To evaluate the in vivo pharmacokinetic (PK) profile of the GDAz‐3 and explore its therapeutic potential, a single intraperitoneal (IP) injection (30 mg kg^−1) was conducted in male ICR mice. Plasma samples were collected at predetermined time points and analyzed using LC‐MS/MS.
The tested compound GDAz‐3 was IP administered to ICR mice (male, n = 3 per time‐point). Blood samples were collected at 0.0833, 0.25, 0.5, 1, 2, 4, 8, and 24 h after IP administration (30 mg kg^−1) and then centrifuged at 6800 g for 6 min at 4 °C to obtain plasma, which were stored at −80 °C until analysis The compound concentrations in plasma were determined by liquid chromatography‐tandem mass spectrometry (API5000 LC‐MS/MS).

intracellular LPO = assay: Intracellular LPO (C11-BODIPY 581/591, flow cytometry) in HT1080 cells; type: cell-based, human; details: 12 h
Description: The level of LPO was determined by flow cytometry using the C11‐BODIPY^581/591 dye. In short, HT1080 cells were incubated in 6‐well plates at a density of 5 × 10^4 cells per well for 24 h. After that, the culture medium was substituted with a fresh medium containing GDAz‐3, ML162, or a mixture of GDAz‐3 and Fer‐1 at the specified concentrations. Following a 12‐h incubation period, HT1080 cells were stained with C11‐BODIPY^581/591 dye for 10 min. Finally, the cell samples were collected, washed twice with phosphate‐buffered saline (PBS), and then analyzed by flow cytometry.

GPX4 [2] = molecular target: T1, GPX4 (Homo sapiens, UniProt P36969); assay: SPR binding to GPX4 recombinant protein
T1 construct: purchased Cayman 26 906
T1 sequence (P36969 28-197 limits assumed): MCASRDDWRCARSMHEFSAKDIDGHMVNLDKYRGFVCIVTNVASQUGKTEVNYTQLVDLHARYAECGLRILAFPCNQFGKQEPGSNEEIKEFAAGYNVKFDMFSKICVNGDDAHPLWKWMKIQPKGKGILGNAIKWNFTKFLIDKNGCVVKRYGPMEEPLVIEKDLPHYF
Description: (§1) The SPR data was generated by our Shared Instrumentation Core Facility at the Hangzhou Institute of Medicine (HIM), Chinese Academy of Sciences. The in vitro binding affinity of compound GDAz‐3 to recombinant proteins (Hsc70, MedChemExpress, #HY‐P73915A; GPX4, Cayman, Item No. 26 906) was evaluated using a Biacore 8K system (Cytiva (GE)) with the method of LMW multi‐cycle kinetics/affinity. Pipelines and chips were flushed with PBS (pH 7.4) running buffer, and then, human Hsc70 was immobilized on a CM5 sensor chip. Analysis was performed at a flow rate of 30 µL min^−1 at 25 °C with the injection of incremental concentrations of compounds dissolved in buffer solution (the final concentration of DMSO was 5%). For ternary‐complex binding measurements, Hsc70 was immobilized on a CM5 sensor chip, and compound GDAz‐3 at a concentration of 1 µM was preincubated with GPX4. The binding and dissociation durations were recorded as response unit values for 120 and 120 s in succession, respectively. Finally, the data were analyzed by Biacore evaluation software with the method of LMW multi‐cycle kinetics/affinity.

GPX4 [3] = molecular target: T2, GPX4 (Homo sapiens, UniProt P36969); assay: GPX4 degradation by western blot in HT1080 cells; type: cell-based; parameters: determine the changes in the endogenous levels of GPX4 by western blot assay; endogenous in cells; host or cells: HT1080 fibrosarcoma cells, including siRNA-knockdown derivatives; details: for remaining activity at 0.5 µM: HT-1080, HT1080 cells, read-out: GPX4 % of control; for remaining activity at 1 µM: read-out: % of control (GPX4/GAPDH)
T2 sequence (P36969 1-170 isoform P36969-2): T1 sequence (P36969 28-197 limits assumed)
Procedure, shortened: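 HT1080 fibrosarcoma cells were treated 24 h with PROTACs at 0.1, 0.3, 1 and 3 µM. Endogenous GPX4 was measured by western blot of RIPA lysates, with band intensities normalized to a loading control.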

human Hsc70 = molecular target: T3, human Hsc70 (Homo sapiens, UniProt P11142); assay: SPR binding to immobilized Hsc70 (binary); details: immobilized Hsc70, 25 °C
T3 construct: purchased MedChemExpress HY-P73915A
Description: as §1

T3 sequence (P11142 whole entry): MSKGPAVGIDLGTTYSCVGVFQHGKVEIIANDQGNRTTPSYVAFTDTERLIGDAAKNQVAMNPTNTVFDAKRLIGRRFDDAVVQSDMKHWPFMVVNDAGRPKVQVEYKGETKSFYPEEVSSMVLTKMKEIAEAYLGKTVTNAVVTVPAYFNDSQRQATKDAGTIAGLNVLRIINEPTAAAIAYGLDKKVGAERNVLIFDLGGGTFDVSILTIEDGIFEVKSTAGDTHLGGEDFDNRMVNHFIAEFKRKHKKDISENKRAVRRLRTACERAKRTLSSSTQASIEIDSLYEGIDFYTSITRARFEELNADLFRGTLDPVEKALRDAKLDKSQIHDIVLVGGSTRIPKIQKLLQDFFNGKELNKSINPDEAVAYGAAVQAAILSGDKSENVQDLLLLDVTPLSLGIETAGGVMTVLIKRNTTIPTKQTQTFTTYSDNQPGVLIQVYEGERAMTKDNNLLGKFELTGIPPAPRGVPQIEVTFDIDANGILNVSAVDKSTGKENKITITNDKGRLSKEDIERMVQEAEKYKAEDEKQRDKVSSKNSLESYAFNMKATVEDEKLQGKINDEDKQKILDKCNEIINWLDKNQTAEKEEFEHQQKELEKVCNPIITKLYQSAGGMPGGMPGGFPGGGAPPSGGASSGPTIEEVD

Which AUC(0-inf) [1] does the source give for `COc1ccc(-c2nc(-c3cc(C(F)(F)F)cc(C(F)(F)F)c3)n(Cc3ccc(C(=O)NCCOCCOCCOCCn4cc(COc5ccc(N(C(=O)CCl)C(C(=O)NCCc6ccccc6)c6cccs6)cc5Cl)nn4)cc3)c2-c2ccc(OC)cc2)cc1` (stereo not drawn) [GDAz-3, 4-((2-(3,5-bis(trifluoromethyl)phenyl)-4,5-bis(4-methoxyphenyl)-1H-imidazol-1-yl)methyl)-N-(2-(2-(2-(2-(4-((2-chloro-4-(2-chloro-N-(2-oxo-2-(phenethylamino)-1-(thiophen-2-yl)ethyl)acetamido)phenoxy)methyl)-1H-1,2,3-triazol-1-yl)ethoxy)ethoxy)ethoxy)ethyl)benzamide] here?
The AUC(0-inf) was 3140 ng·h/mL.

What about the AUC(0-t) [1] of the same compound?
Its AUC(0-t) is 2450 ± 939 ng·h/mL.

And the Cmax [1]?
The Cmax was 201 ng/mL.

What about the MRT inf [1] of the same compound?
Its MRT inf is 15.5 ± 1.31 h.

What about the Tmax [1] of the same compound?
Its Tmax is 4 h.

What about the half-life [1] of the same compound?
Its half-life is 10.2 h.

And the “Fluorescence intensity of C11-BODIPY 581/591 (lipid peroxidation)” value (intracellular LPO)?
Its value is “markedly enhanced”.

What about the Kd (GPX4 [2]) of the same compound?
The Kd was 1170 nM.

What about the “GPX4 degradation in wild-type and CRBN- or VHL-knockdown HT1080 cells” value (GPX4 [3]; 0.5 µM, 24 h) of the same compound?
Its value is “promoted the degradation of GPX4”.

And the “GPX4 degradation in BAG3-knockdown cells” value (GPX4 [3]; BAG3 siRNA HT1080 cells, 24 h)?
The value was “completely abolished”.

And the “GPX4 degradation in CHIP-knockdown cells” value (GPX4 [3]; CHIP siRNA HT1080 cells, 24 h)?
Its value is “did not induce any detectable protein degradation of GPX4”.

And the “Reduction of the GPX4 protein level” value (GPX4 [3]; HT1080 cells, 0.1 µM, 24 h)?
Its value is “≈ 50%”.

And the GPX4 degradation (GPX4 [3]; HT1080 cells, 0.3 µM, 24 h (Figure 3A))?
The GPX4 degradation was “effectively triggered substantial GPX4 degradation”.

What about the “Sustained GPX4 degradation upon washout” value (GPX4 [3]; HT1080 cells, 1 µM for 24 h, then rinsed with PBS) of the same compound?
Its value is “without obvious recovery even 24 h after removal of the degrader”.

And the “GPX4 protein level, degradation kinetics” value (GPX4 [3]; HT1080 cells, 1 µM, 8 h)?
Its value is “obviously reduced GPX4 protein level”.

And the “GPX4 degradation efficiency versus reported GPX4 degraders” value (GPX4 [3]; HT1080 cells, 1 µM, 24 h)?
Its value is “comparable GPX4 degradation efficiency”.

And the “GPX4 protein level, degradation kinetics” value (GPX4 [3]; HT1080 cells, 1 µM, 24 h)?
Its value is “complete GPX4 depletion”.

What about the DC50 (GPX4 [3]; HT1080 cells, 24 h) of the same compound?
The DC50 was 130 nM.

What about the “GPX4 degradation effect in combination with 3-methyladenine (3-MA)” value (GPX4 [3]; HT1080 cells, 24 h) of the same compound?
The value was “partially rescued”.

What about the “GPX4 degradation effect after proteasome inhibitor” value (GPX4 [3]; HT1080 cells, MG132 5 µM for 2 h before GDAz-3 for 24 h) of the same compound?
Its value is “completely abrogated”.

What about the remaining activity at 0.5 µM (GPX4 [3]; GDAz-3 0.5 µM 12 h after pre-treatment with MLN4924 2.5 µM for 2 h) of the same compound?
Its remaining activity at 0.5 µM is 61%.

What about the remaining activity at 0.5 µM (GPX4 [3]; GDAz-3 0.5 µM, 12 h) of the same compound?
The remaining activity at 0.5 µM was 45%.

And the remaining activity at 1 µM (GPX4 [3]; HT-1080, HT-1080, 1 µM, 24 h)?
The remaining activity at 1 µM was 45%.

What about the remaining activity at 1 µM (GPX4 [3]; HT-1080, HT-1080-siRNA-LAMP2A (LAMP2A knockdown), 1 µM, 24 h) of the same compound?
The remaining activity at 1 µM was 68%.

What about the “GPX4 degradation in Hsc70-knockdown cells” value (GPX4 [3]; Hsc70 siRNA HT1080 cells, 1 µM, 24 h) of the same compound?
The value was “markedly abrogated”.

What about the “GPX4 degradation in Hsp70-knockdown cells” value (GPX4 [3]; Hsp70 siRNA HT1080 cells, 24 h) of the same compound?
Its value is “not affected”.

And the Kd (human Hsc70)?
Its Kd is 18 nM.
